Measured values: US6756210B2, “Linoleic acid diol and glucuronide conjugate levels as diagnostic markers of disorders of abnormal regulation of cytochrome P450 metabolism of unsaturated fatty acids” (The Regents of the University of California, priority 2001, dated 2004)
Several values for one entry are separate records, joined by “and”; a condition that tells them apart may be missing. Identical values can stand only once. Like-named read-outs stand apart in the source and are kept apart here.

How the values were obtained:
[1] = system: CYP epoxygenase or -hydroxylase; test: Renal microsomal arachidonic acid metabolism (CYP epoxygenase, hydroxylase); format: biochemical, rat; set-up: dose or concentration left out as unconfirmed
Method: Renal microsomal arachidonic acid metabolism. Microsomes, cytosol, and S9 fractions were prepared from the renal cortex or outer medulla samples from a single animal as described previously (Kroetz, D. L. et al. Mol Pharmacol 52, 362-372 (1997), Su, P. et al. Am J Physiol 275, R426-438 (1998)). Reaction conditions for the in vitro determination of arachidonic acid epoxygenase activity, metabolite extraction and HPLC analysis were described in detail elsewhere (Su, P. et al. Am J Physiol 275, R426-438 (1998)).

WKY rats = test: Systolic blood pressure in WKY rats (tail cuff); format: in vivo, rat; settings: single 3 mg/kg dose
Excerpt: (§1) Animals. Male SHR and WKY rats 3-13 wks of age were purchased from Charles River Laboratories (Wilmington, Mass.) and housed in a controlled environment with 12 hr light/dark cycles and fed standard laboratory chow for 3 days before euthanasia. All animal use was approved by the University of California San Francisco Committee on Animal Research and followed the National Institutes of Health guidenlines for the care and use of laboratory animals. For isolation of kidney subcellular fractions, rats were anesthetized with methoxyflurane, the abdominal cavities were opened, and the kidneys were perfused with ice-cold saline. Perfused kidneys were rapidly removed, the cortex and medulla dissected out and immersed in liquid nitrogen. All tissue was stored at −80° C. until preparation of microsomes. In some cases WKY and SHR rats were housed in metabolic cages for up to three days and urine was collected over triphenylphosphine in 24 hr intervals. The urine volume was noted and aliquots were stored at −80° C. prior to extraction and quantitation of DHETs and EETs. […] Systolic blood pressure was measured at room temperature by a photoelectric tail cuff system (Model 179, IITC, Inc., Woodland Hills, Calif.) for up to four days following the dose of inhibitor. Blood pressures are reported as the average of three separate readings over a 30 min period. […]

mEH = target: T1, mEH (Rattus norvegicus, UniProt P07687); settings: previous studies, Morisseau 1999; cited from earlier work
T1 sequence (P07687 1-455): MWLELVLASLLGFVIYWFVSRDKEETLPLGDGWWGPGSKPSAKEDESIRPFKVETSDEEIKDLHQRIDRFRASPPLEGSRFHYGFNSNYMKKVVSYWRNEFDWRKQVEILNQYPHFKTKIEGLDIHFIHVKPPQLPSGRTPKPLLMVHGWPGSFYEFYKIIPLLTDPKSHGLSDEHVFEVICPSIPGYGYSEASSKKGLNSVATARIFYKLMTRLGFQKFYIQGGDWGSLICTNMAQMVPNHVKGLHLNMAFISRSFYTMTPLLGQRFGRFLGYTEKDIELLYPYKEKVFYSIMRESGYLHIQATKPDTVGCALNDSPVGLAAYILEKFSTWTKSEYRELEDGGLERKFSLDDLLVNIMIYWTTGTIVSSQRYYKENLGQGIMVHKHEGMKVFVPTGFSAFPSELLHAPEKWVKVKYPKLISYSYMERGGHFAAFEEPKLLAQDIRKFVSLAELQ

recombinant rat mEH = target: T2, recombinant rat mEH (Rattus norvegicus, UniProt P07687); test: Inhibition of recombinant rat mEH; format: biochemical
T2 sequence (P07687 1-455): T1 sequence (P07687 1-455)
Method: (§2) The micosomal enzyme plays a significant role in the metabolism of xenobiotics such as polyaromatic toxicants. Additionally, polymorphism studies have underlined a potential role of this enzyme in relation to several diseases, such as emphysema, spontaneous abortion and several forms of cancer. Inhibition of recombinant rat and human mEH can be obtained using primary ureas, amides, and amines. For example, elaidamide, has a K1 of 70 nM for recombinant rat mEH.

[2] = system: insect cell culture expressing rat mEH; test: Insect cell culture expressing rat mEH, toxicity of epoxide-containing xenobiotics; format: cell-based
Method: as §2

SHR = test: Systolic blood pressure in SHR (tail cuff); format: in vivo, rat; settings: 6 hr after single dose (3 mg/kg DCU or equimolar)
Excerpt: as §1

[3] = target: T3, recombinant mouse sEH (MsEH) (Mus musculus, UniProt P34914); test: Inhibition of recombinant mouse sEH (MsEH); format: biochemical
T3 sequence (P34914 1-554): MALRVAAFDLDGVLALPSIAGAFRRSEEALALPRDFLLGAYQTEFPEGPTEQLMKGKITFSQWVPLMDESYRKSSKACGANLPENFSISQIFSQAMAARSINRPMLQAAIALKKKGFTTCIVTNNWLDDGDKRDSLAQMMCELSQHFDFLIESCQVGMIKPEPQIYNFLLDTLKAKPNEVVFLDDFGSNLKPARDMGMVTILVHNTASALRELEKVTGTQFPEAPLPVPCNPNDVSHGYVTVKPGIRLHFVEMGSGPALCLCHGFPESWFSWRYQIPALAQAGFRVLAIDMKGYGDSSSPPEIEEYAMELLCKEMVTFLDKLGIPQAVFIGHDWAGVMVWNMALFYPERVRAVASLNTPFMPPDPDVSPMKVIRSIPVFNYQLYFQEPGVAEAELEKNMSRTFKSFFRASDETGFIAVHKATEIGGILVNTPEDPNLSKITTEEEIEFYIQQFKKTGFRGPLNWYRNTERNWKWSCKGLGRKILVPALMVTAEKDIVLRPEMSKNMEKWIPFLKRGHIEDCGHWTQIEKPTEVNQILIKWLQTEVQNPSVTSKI

Human sEH (HsEH) = target: T4, Human sEH (HsEH) (Homo sapiens, UniProt P34913); test: Inhibition of recombinant human sEH (HsEH); format: biochemical; settings: HsEH 0.26 μM
T4 sequence (P34913 1-555): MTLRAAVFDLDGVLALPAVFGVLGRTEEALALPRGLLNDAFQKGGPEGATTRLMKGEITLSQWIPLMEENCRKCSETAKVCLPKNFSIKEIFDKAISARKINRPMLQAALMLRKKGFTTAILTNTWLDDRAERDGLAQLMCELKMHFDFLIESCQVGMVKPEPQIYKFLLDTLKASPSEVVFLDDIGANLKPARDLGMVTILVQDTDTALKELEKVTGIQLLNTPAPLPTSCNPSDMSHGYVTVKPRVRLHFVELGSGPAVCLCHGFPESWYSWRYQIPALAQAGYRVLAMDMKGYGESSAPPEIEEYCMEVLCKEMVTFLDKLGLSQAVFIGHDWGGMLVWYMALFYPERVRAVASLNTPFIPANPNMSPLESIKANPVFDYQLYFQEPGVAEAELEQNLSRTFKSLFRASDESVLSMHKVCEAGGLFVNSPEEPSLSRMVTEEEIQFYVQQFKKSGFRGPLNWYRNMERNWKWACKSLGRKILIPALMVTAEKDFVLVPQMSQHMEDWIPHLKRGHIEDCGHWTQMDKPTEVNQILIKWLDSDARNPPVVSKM

[4] = Table 1, MsEH 0.13 μM, read-out: Mouse sEH IC50
[5] = Table 2, MsEH 0.13 μM, read-out: Mouse sEH IC50

SMILES	IC50 [3, 4]	IC50 (Human sEH (HsEH); Table 1)	also measured
O=C(NC1CCCCC1)NC1CCCCC1 [DCU, N,N′-dicyclohexylurea]	–	–	effect on CYP epoxygenase or -hydroxylase activity [1]: no effect; effect on blood pressure in WKY (WKY rats): unaffected; inhibition of mEH (mEH): does not inhibit mEH
CCCCCCCC/C=C/CCCCCCCC(N)=O [elaidamide]	–	–	inhibition kinetics with mEH (recombinant rat mEH; non-covalent complex): apparent mix of competitive and non-competitive inhibition kinetics; Ki (recombinant rat mEH; read-out: K1 for recombinant rat mEH): 70 nM; effect on toxicity of epoxide-containing xenobiotics [2]: enhances the toxicity effects
CCCCCCCCCCCCNC(=O)NC1CCCCC1 [N-cyclohexyl-N′-dodecylurea]	–	–	decrease in systolic blood pressure (SHR): 12±2 mm Hg and 12 mm Hg
CCCCCCNC(=O)Nc1ccc2ccccc2c1 [compound 143]	1000 ± 100 nM	570 ± 10 nM	–
O=C(Nc1ccc(Br)cc1)NC1CCCCC1 [compound 65]	170 ± 10 nM	110 ± 10 nM	–
CCCCCNC(=O)NC1CCCCC1 [compound 509]	60 ± 10 nM	920 ± 80 nM	–
CCCCCCCNC(=O)NC1CCCCC1 [compound 508]	50 ± 10 nM	100 ± 10 nM	–
CC(C)(C)C1CCC(NC(=O)NC2CCCCC2)CC1 (stereo not drawn) [compound 428]	50 ± 100 nM	100 ± 10 nM	–
CC(C)[C@@H]1CC[C@@H](C)C[C@H]1OC(=O)NC1CCCCC1 [compound 225]	840 ± 100 nM	1050 ± 30 nM	–
O=C(NC1CCCCC1)OCc1c2ccccc2cc2ccccc12 [compound 263]	3000 ± 300 nM	330 ± 60 nM	–
O=C(NCC1CCCCC1)NC12CC3CC(CC(C3)C1)C2 [compound 437]	50 ± 10 nM	100 ± 10 nM	–
O=C(CCCCc1ccccc1)NC1CCCCC1 [compound 381]	60 ± 10 nM	680 ± 30 nM	–
CC(=O)c1ccc(NC(=O)NC2CCCCC2)cc1 [compound 126]	60 ± 10 nM	270 ± 20 nM	–
OC(c1ccccc1)C1OC1c1ccc(-c2ccccc2)cc1 (racemic) [R=4-C6H5—C6H4, R′=C6H5, X—Y=CH—OH, ±]	–	–	IC50 [3, 5]: 510 ± 40 nM; IC50 (Human sEH (HsEH); Table 2): 720 ± 30 nM
O=C(O)CCCCCCCCCCCNC(=O)Nc1ccc2ccccc2c1 [compound 283]	700 ± 200 nM	1120 ± 30 nM	–
O=C(NCC1CCCCC1)Nc1cccc(Cl)c1 [compound 179]	60 ± 10 nM	100 ± 10 nM	–
CCCCCCCCCCNC(=O)Nc1cccc(Cl)c1 [compound 172]	120 ± 10 nM	300 ± 10 nM	–
O=C(NCCc1ccc(Cl)cc1)NC1CCCCC1 [compound 361]	70 ± 20 nM	200 ± 20 nM	–
O=C(NCc1ccc([N+](=O)[O-])cc1)NC1CCCCC1 [compound 341]	2300 ± 300 nM	4300 ± 400 nM	–
Cc1cccc(C)c1NC(=O)NC1CCCCC1 [compound 435]	50 ± 10 nM	180 ± 10 nM	–
O=C(Nc1ccccc1)NC1CCCCC1 [compound 21]	760 ± 20 nM	1390 ± 20 nM	–
O=C(NCCC1CCCCC1)NC1CCCCC1 [compound 360]	50 ± 10 nM	100 ± 10 nM	–

SMILES	IC50 [3, 4]	IC50 (Human sEH (HsEH); Table 1)	also measured
CCCCCCCCCCCCNC(=O)NC(C)(C)CC [compound 562]	500 ± 100 nM	15000 ± 3000 nM	–
[O-][S+](c1ccccc1)C1OC1c1ccc(-c2ccccc2)cc1 (racemic) [R=4-C6H5—C6H4, R′=C6H5, X—Y=S═O, ±]	–	–	IC50 [3, 5]: 73000 ± 5000 nM; IC50 (Human sEH (HsEH); Table 2): 70000 ± 3000 nM
O=C(NCCCc1ccccc1)Nc1ccccc1 [compound 430]	210 ± 20 nM	550 ± 30 nM	–
CCCCCCCCCCCCNC(=O)NCC(C)C [compound 478]	50 ± 10 nM	260 ± 20 nM	–
CCCCCCNC(=O)Nc1cccc(Cl)c1 [compound 178]	310 ± 10 nM	250 ± 10 nM	–
C[C@H](NC(=O)NC1CCCCC1)c1ccccc1 [compound 544]	50 ± 10 nM	100 ± 10 nM	–
O=C(c1ccccc1)C1OC1c1ccc(-c2ccccc2)cc1 (racemic) [R=4-C6H5—C6H4, R′=C6H5, X—Y=C═O, ±]	–	–	IC50 [3, 5]: 140 ± 10 nM; IC50 (Human sEH (HsEH); Table 2): 200 ± 10 nM
CC(O)C1OC1c1ccc([N+](=O)[O-])cc1 (racemic) [R=4-NO2—C6H4, R′=CH3, X—Y=CH—OH, ±]	–	–	IC50 [3, 5]: 6500 ± 200 nM; IC50 (Human sEH (HsEH); Table 2): 39000 ± 1000 nM
CC1CCCCC1NC(=O)NC1CCCCC1 (stereo not drawn) [compound 551]	50 ± 10 nM	100 ± 10 nM	–
O=C(NC1CCCCC1)Oc1ccc2ccccc2c1 [compound 110]	–	350 ± 10 nM	IC50 [3]: 210 ± 10 nM
CCOC(CNC(=O)Nc1ccc(C(C)C)cc1)OCC [compound 159]	590 ± 30 nM	3400 ± 40 nM	–
CC1CCC(C(C)C)C(OC(=O)NC2CCCCC2)C1 (stereo not drawn) [compound 261]	80 ± 10 nM	120 ± 10 nM	–
O=C(O)CCCCCCCCCCCNC(=O)NC1CCCCC1 [compound 425]	50 ± 10 nM	100 ± 10 nM	–
O=C(NCCC1=CCCCC1)NC1CCCCC1 [compound 359]	50 ± 10 nM	100 ± 10 nM	–
CCNC(=O)OC1CCCCC1 [compound 255]	–	2880 ± 40 nM	IC50 [3]: 480 ± 70 nM
CCCCCCCCCCCCNC(=O)NCCCC [compound 531]	140 ± 20 nM	640 ± 30 nM	–
CCCCCCCCCCCNC(=O)NCCCC [compound 556]	200 ± 20 nM	740 ± 70 nM	–
O=C(c1ccccc1)C1OC1c1ccccc1 (racemic) [R=C6H5, R′=C6H5, X—Y=C═O, ±]	–	–	IC50 [3, 5]: 2900 ± 300 nM; IC50 (Human sEH (HsEH); Table 2): 300 ± 100 nM
O=C(NC1CCCCC1)NC1CCCc2ccccc21 (stereo not drawn) [compound 434]	50 ± 10 nM	100 ± 10 nM	–
CCCCCCCCNC(=O)Nc1cccc(Cl)c1 [compound 170]	120 ± 10 nM	180 ± 10 nM	–
OC(c1ccccc1)C1OC1c1ccccc1 (racemic) [R=C6H5, R′=C6H5, X—Y=CH—OH, ±]	–	–	IC50 [3, 5]: 12600 ± 900 nM; IC50 (Human sEH (HsEH); Table 2): 22000 ± 2000 nM
